Reference: patent US12286435B2, “Compound having benzo seven-membered ring structure, preparation method therefor, and use thereof” (BIONNA (BEIJING) MEDICAL TECHNOLOGY CO., LTD., priority 2019, dated 2025)

Experiments:
[1] = system: multiple myeloma MM.1S cell line; assay: Cell viability (CCK-8), multiple myeloma MM.1S; type: cell-based; settings: Homo sapiens, MM1.S, 96 h, MM.1S cells, 4 days, CCK-8, 50% inhibition of cell growth
Protocol: 3. Determination of cell viability of the compound
The sample to be tested was dissolved with 100% dimethyl sulfoxide to prepare a 20 mM stock solution of the compound, which was diluted with 100% dimethyl sulfoxide to the highest compound concentration required for the experiment (2.5 mM).
First, 145 uL of a complete cell culture medium was added to wells B1-G1 of a 96-well flat-bottomed tansparent cell culture plate, and 100 uL of the complete medium was added to wells B2-G12, respectively. Then, 5 uL of the 2.5 mM solution of the compound was added to wells B1-D1 and E1-G1 respectively, and then diluted gradiently by 3-folds to B12-D12 and E12-G12 in sequence. Finally, 50 uL of the solution of the cells to be tested was added to each well, with about 3000-5000 cells per well, and a total volume of 150 uL per well.
In the experiment, in addition to the tested compound, two other control groups were set up: 1) a control group adding the cells and the complete medium, but without adding the compound; 2) a control group adding the complete medium only, without adding the cells and the compound. The 96-well plate was placed in a 37° C. cell culture incubator containing 5% carbon dioxide for 4 days, added with 15 uL of a CCK-8 reagent per well, and then incubated at 37° C. for 2-4 hours. The 96-well plate was read on a TECAN microplate reader, and the absorbance value at 450 nm wavelength was taken.
The effect of different concentrations of the compound on cell viability was calculated by the following equation: [absorption value of the experimental group−absorption value of pure cell culture medium without the cells or the compound]/[absorption value of the control group with the tumor cells but no testing compound−absorption value of pure cell culture medium without the cell or the compound]×100%.
The above data were precessed by software, and the IC50 value was the concentration of the compound corresponding to the 50% inhibition rate of cell growth.
Based on the above test method of the compound on cell viability, a variety of […] cancer cell lines were tested, using multiple myeloma MM.1S, breast cancer MDA-MB-231 and leukemia MV4-11 cell lines as exemples. Using this test method, the IC50 values of partial compounds in the examples of the present invention measured in multiple myeloma MM.1S, breast cancer MDA-MB-231 cell lines and leukemia MV4-11 cell lines were shown in Table 2.

BRD4 BD1 protein = BRD4 BD1 protein (Homo sapiens (Human), UniProt O60885); assay: Fluorescence polarization binding affinity (Ki) with BRD4 BD1 protein; settings: fluorescence polarization; Ki calculated from IC50
BRD4 BD2 protein = BRD4 BD2 protein (Homo sapiens (Human), UniProt O60885); assay: Fluorescence polarization binding affinity (Ki) with BRD4 BD2 protein; settings: fluorescence polarization; Ki calculated from IC50

IC50 [1] [nM]	Ki (BRD4 BD1 protein) [nM]	Ki (BRD4 BD2 protein) [nM]	Compound
323	89.9	12.9	Cc1nnn2c1-c1ccc(-c3ccc4c(c3)OCO4)cc1C(Nc1ccc(Cl)cc1)CC2 (stereo not shown) [RB11, 9-(benzo[d][1,3]dioxo1-5-yl)-N-(4-chlorophenyl)-1-methyl-6,7-dihydro-5H-benzo[c][1,2,3]triazolo[1,5-a]azepin-7-amine]
	51.8	11.2	Cc1nnn2c1-c1ccc(-c3cnn(C)c3)cc1C(Nc1ccccc1Cl)CC2 (stereo not shown) [LC191, N-(2-chlorophenyl)-1-methyl-9-(1-methyl-1H-pyrazol-4-yl)-6,7-dihydro-5H-benzo[c][1,2,3]triazolo[1,5-a]azepin-7-amine]
	162	16.4	Cc1nnn2c1-c1ccc(-c3cnn(C)c3)cc1C(Nc1c(F)cccc1Cl)CC2 (stereo not shown) [LC185, N-(2-chloro-6-fluorophenyl)-1-methyl-9-(1-methyl-1H-pyrazol-4-yl)-6,7-dihydro-5H-benzo[c][1,2,3]triazolo[1,5-a]azepin-7-amine]
	949	623	Cc1nnn2c1-c1ccc(-c3cnn(C)c3)cc1C(N(C=O)c1cccc(Cl)c1)CC2 (stereo not shown) [LC174, N-(3-chlorophenyl)-N-(1-methyl-9-(1-methyl-1H-pyrazol-4-yl)-6,7-dihydro-5H-benzo[c][1,2,3]triazolo[1,5-a]azepin-7-yl)formamide]

More lines, now with the values behind:

Compound	IC50 [1] [nM]	Ki (BRD4 BD1 protein) [nM]	Ki (BRD4 BD2 protein) [nM]
Cc1nnn2c1-c1ccc(C3=CCNCC3)cc1C(Nc1cccc(Cl)c1)CC2 (stereo not shown) [LC79, N-(3-chlorophenyl)-1-methyl-9-(1,2,3,6-tetrahydropyridin-4-yl)-6,7-dihydro-5H-benzo[c][1,2,3]triazolo[1,5-a]azepin-7-amine 2,2,2-trifluoroacetate]	936	639	34.2
COc1ccc2c(c1)C(Nc1ccc(C)cc1)CCc1onc(C)c1-2 (stereo not shown) [BB188, 8-methoxy-1-methyl-N-(p-tolyl)-5,6-dihydro-4H-benzo[6,7]cyclohepta[1,2-d]isoxazol-6-amine]	805	94.2	41.4
Cc1nnn2c1-c1ccc(-c3cnn(C)c3)cc1C(Nc1cccc(N(C)C)c1)CC2 (stereo not shown) [LB152, N^1,N^1-dimethyl-N^3-(1-methyl-9-(1-methyl-1H-pyrazol-4-yl)-6,7-dihydro-5H-benzo[c][1,2,3]triazolo[1,5-a]azepin-7-yl)benzene-1,3-diamine]	26.2	75.5	16.7
Cc1nnn2c1-c1ccc(C3=CCN(C)CC3)cc1C(Nc1cccc(Cl)c1)CC2 (stereo not shown) [LD07, N-(3-chlorophenyl)-1-methyl-9-(1-methyl-1,2,3,6-tetrahydropyridin-4-yl)-6,7-dihydro-5H-benzo[c][1,2,3]triazolo[1,5-a]azepin-7-amine 2,2,2-trifluoroacetate]	146	770	33.1
Cc1nnn2c1-c1ccc(-c3cnn(C)c3)cc1C(Nc1ccc(CN(C)C)cc1)CC2 (stereo not shown) [LB138, N-(4-((dimethylamino)methyl)phenyl)-1-methyl-9-(1-methyl-1H-pyrazol-4-yl)-6,7-dihydro-5H-benzo[c][1,2,3]triazolo[1,5-a]azepin-7-amine]	961	1040	203
COc1ccc2c(c1)C(Nc1ccccc1)CCc1onc(C)c1-2 (stereo not shown) [FA03, 8-methoxy-1-methyl-N-phenyl-5,6-dihydro-4H-benzo[6,7]cyclohepta[1,2-d]isoxazol-6-amine]	502	206	56.3
COC(=O)Cc1ccc(NC2CCn3nnc(C)c3-c3ccc(-c4cnn(C)c4)cc32)cc1 (stereo not shown) [LB38, methyl 2-(4-((1-methyl-9-(1-methyl-1H-pyrazol-4-yl)-6,7-dihydro-5H-benzo[c][1,2,3]triazolo[1,5-a]azepin-7-yl)amino)phenyl)acetate]	32.9		
Cc1nnn2c1-c1ccc(-c3cnn(C)c3)cc1C(Nc1cccc(CCO)c1)CC2 (stereo not shown) [LB71, 2-(3-((1-methyl-9-(1-methyl-1H-pyrazol-4-yl)-6,7-dihydro-5H-benzo[c][1,2,3]triazolo[1,5-a]azepin-7-yl)amino)phenyl)ethanol]	151		
CCn1cc(-c2ccc3c(c2)C(Nc2ccc(Cl)cc2)CCc2onc(C)c2-3)cn1 (stereo not shown) [LA93, N-(4-chlorophenyl)-1-methyl-8-(1-ethyl-1H-pyrazol-4-yl)-5,6-dihydro-4H-benzo[6,7]cyclohepta[1,2-d]isoxazol-6-amine]		76.3	46.7
CCCN1CC=C(c2ccc3c(c2)C(Nc2cccc(Cl)c2)CCn2nnc(C)c2-3)CC1 (stereo not shown) [BH120, N-(3-chlorophenyl)-1-methyl-9-(1-propyl-1,2,3,6-tetrahydropyridin-4-yl)-6,7-dihydro-5H-benzo[c][1,2,3]triazolo[1,5-a]azepin-7-amine 2,2,2-trifluoroacetate]		583	21.9
Cc1nnn2c1-c1ccc(C3=CCNCC3)cc1C(Nc1cccc3[nH]ccc13)CC2 (stereo not shown) [WA78, 2,2,2-trifluoroacetate]		281	19.8
Cc1nnn2c1-c1ccc(C3=CCN(C4CCC4)CC3)cc1C(Nc1cc(Cl)ccc1F)CC2 (stereo not shown) [BI26, N-(5-chloro-2-fluorophenyl)-9-(1-cyclobutyl-1,2,3,6-tetrahydropyridin-4-yl)-1-methyl-6,7-dihydro-5H-benzo[c][1,2,3]triazolo[1,5-a]azepin-7-amine 2,2,2-trifluoroacetate]		861	45.4
Cc1nnn2c1-c1ccc(C3=CCNCC3)cc1C(Nc1cccc(CC(=O)O)c1)CC2 (stereo not shown) [LC87, 2-(3-((1-methyl-9-(1,2,3,6-tetrahydropyridin-4-yl)-6,7-dihydro-5H-benzo[c][1,2,3]triazolo[1,5-a]azepin-7-yl)amino)phenyl) acetic acid]		> 20000	142
Cc1nnn2c1-c1ccc(C3=CCNCC3)cc1C(Nc1ccc3[nH]ccc3c1)CC2 (stereo not shown) [WA82, N-(1H-indo1-5-yl)-1-methyl-9-(1,2,3,6-tetrahydropyridin-4-yl)-6,7-dihydro-5H-benzo[c][1,2,3]triazolo[1,5-a]azepin-7-amine 2,2,2-trifluoroacetate]		436	53.6
COc1cccc(NC2CCn3nnc(C)c3-c3ccc(C4=CCN(C(C)=O)CC4)cc32)c1 (stereo not shown) [BH27, 1-(4-(7-((3-methoxyphenyl)amino)-1-methyl-6,7-dihydro-5H-benzo[c][1,2,3]triazolo[1,5-a]azepin-9-yl)-3,6-dihydropyridin-1(2H)-yl)ethan-1-one]		70.1	2.95
Cc1nnn2c1-c1ccc(C3=CCN(C4CCCCC4)CC3)cc1C(Nc1cccc(C#N)c1)CC2 (stereo not shown) [BI29, 3-((9-(1-cyclohexyl-1,2,3,6-tetrahydropyridin-4-yl)-1-methyl-6,7-dihydro-5H-benzo[c][1,2,3]triazolo[1,5-a]azepin-7-yl)amino)benzonitrile 2,2,2-trifluoroacetate]		2660	168
CCC(C)N1CC=C(c2ccc3c(c2)C(Nc2ccc(Cl)cc2)CCn2nnc(C)c2-3)CC1 (stereo not shown) [LD17, 9-(1-(sec-butyl)-1,2,3,6-tetrahydropyridin-4-yl)-N-(4-chlorophenyl)-1-methyl-6,7-dihydro-5H-benzo[c][1,2,3]triazolo[1,5-a]azepin-7-amine 2,2,2-trifluoroacetate]		616	51
CNC(=O)Cc1cccc(NC2CCn3nnc(C)c3-c3ccc(C4=CCNCC4)cc32)c1 (stereo not shown) [LC131]		835	86.3
COc1cccc(NC2CCn3nnc(C)c3-c3ccc(C4=CCNCC4)cc32)c1 (stereo not shown) [LC159, N-(3-methoxyphenyl)-1-methyl-9-(1,2,3,6-tetrahydropyridin-4-yl)-6,7-dihydro-5H-benzo[c][1,2,3]triazolo[1,5-a]azepin-7-amine 2,2,2-trifluoroacetate]		2130	65.4
COC(=O)c1ccccc1NC1CCn2nnc(C)c2-c2ccc(-c3cnn(C)c3)cc21 (stereo not shown) [LB160, methyl 2-((1-methyl-9-(1-methyl-1H-pyrazol-4-yl)-6,7-dihydro-5H-benzo[c][1,2,3]triazolo[1,5-a]azepin-7-yl)amino)benzoate]		96.4	12.5
CC(=O)N1CC=C(c2ccc3c(c2)C(Oc2cccc(Cl)c2)CCn2nnc(C)c2-3)CC1 (stereo not shown) [BH81, 1-(4-(7-(3-chlorophenoxy)-1-methyl-6,7-dihydro-5H-benzo[c][1,2,3]triazolo[1,5-a]azepin-9-yl)-3,6-dihydropyridin-1(2H)-yl)ethan-1-one]		869	31.1
